Measured values: patent publication US20090047221A1 (NIPRI LIMITED, priority 2004, published 2009)

System: cancer cell line MDA-MB-468
Assay: Combination index with known cancer drugs against proliferation (Calcusyn software)
Assay type: cell-based
Conditions: MDA-MB-468
Source text: A combination index of less than 0.1 indicates very strong synergy; a combination index of 0.1 to 0.3 indicates strong synergism; a combination index of 0.3 to 0.7 indicates synergism; a combination index of 0.7 to 0.85 indicates moderate synergism; a combination index of 0.85 to 0.9 indicates slight synergism and a combination index of 0.9 to 1.1 indicates only very slight synergism, said combination being close to merely additive.
The combination index may be calculated using calcusyn software.
Evidence of synergy was determined by calculation of the combination index using Calcusyn software.
The MTT assay was used initially to determine the anti-proliferative activity of the test compounds. In the MTT assay a yellow thiazolyl blue tetrazolium bromide salt (MTT) is reduced, in metabolically active cells, to form insoluble purple formazan crystals which are solubilised by the addition of dimethyl sulphoxide (DMSO). Absorbance readings can then be determined spectrophotometrically and a relationship established between control untreated cells and drug treated cells enabling the quantification of anti-proliferative changes as a result of drug treatment (Mosmann, 1983).
Wells containing medium only were used as blanks. Following the attachment period, cells were treated with appropriate drug concentrations (20 μl added per well). 40 mg/ml stock drug solutions, in DMSO, were stored at −20° C. and on the day of drug treatment working solutions of 4 mg/ml were prepared in medium which was further diluted to achieve final drug dilution volumes of 20 μl. Initial screening was determined over a concentration range of 1-200 μg/ml. For potent compounds the assay was repeated over a narrower concentration range to determine accurate IC50 values. Cells were exposed to drug for 96 h continual exposure (37° C., 5% CO2). Following the 96 h incubation, 50 μl MTT solution (1 g MTT/500 ml PBS) was added per well and the plates were further incubated for 4 h (37° C., 5% CO2). After incubation the MTT and medium was removed from the wells and 100 μl DMSO added per well. Plates were agitated on an orbital mixer platform (Stuart Scientific) for 10 minutes. Absorbance was measured at 570 nm on a Biotrak II (Amersham Bioscience) plate reader. IC50 values were calculated comparing control and drug treated cells.

CC1(C)Cc2ccc(C(=O)N[C@@H](Cc3ccccc3)C(=O)O)c(O)c2C(=O)O1 [ALM-74, L-Phenyl Alanine Amide of Compound ALM-73] was tested, and the “Combination Index” value (Cisplatin 1 × 10^−2 mol/L, ALM-74 0.1 μg/ml) was 0.006, the “Combination Index” value (Cisplatin 1 × 10^−2 mol/L, ALM-74 0.5 μg/ml) was 0.008 and the “Combination Index” value (Cisplatin 1 × 10^−2 mol/L, ALM-74 1.0 μg/ml) was 0.082. The “Combination Index” value (Cisplatin 1 × 10^−2 mol/L, ALM-74 5.0 μg/ml) was 0.130, the “Combination Index” value (Cisplatin 1 × 10^−3 mol/L, ALM-74 0.1 μg/ml) was “No” and the “Combination Index” value (Cisplatin 1 × 10^−3 mol/L, ALM-74 0.5 μg/ml) was “No”. The “Combination Index” value (Cisplatin 1 × 10^−3 mol/L, ALM-74 1.0 μg/ml) was 0.039, the “Combination Index” value (Cisplatin 1 × 10^−3 mol/L, ALM-74 5.0 μg/ml) was 0.346 and the “Combination Index” value (Cisplatin 1 × 10^−4 mol/L, ALM-74 0.1 μg/ml) was “No”. The “Combination Index” value (Cisplatin 1 × 10^−4 mol/L, ALM-74 0.5 μg/ml) was “No”, the “Combination Index” value (Cisplatin 1 × 10^−4 mol/L, ALM-74 1.0 μg/ml) was 0.061 and the “Combination Index” value (Cisplatin 1 × 10^−4 mol/L, ALM-74 5.0 μg/ml) was 1.031. The “Combination Index” value (Cisplatin 1 × 10^−5 mol/L, ALM-74 0.1 μg/ml) was “No”, the “Combination Index” value (Cisplatin 1 × 10^−5 mol/L, ALM-74 0.5 μg/ml) was “No” and the “Combination Index” value (Cisplatin 1 × 10^−5 mol/L, ALM-74 1.0 μg/ml) was 0.069. For the same molecule, the “Combination Index” value (Cisplatin 1 × 10^−5 mol/L, ALM-74 5.0 μg/ml) was 0.778, the “Combination Index” value (Cisplatin 1 × 10^−6 mol/L, ALM-74 0.1 μg/ml) was “No” and the “Combination Index” value (Cisplatin 1 × 10^−6 mol/L, ALM-74 0.5 μg/ml) was “No”. The “Combination Index” value (Cisplatin 1 × 10^−6 mol/L, ALM-74 1.0 μg/ml) was 0.083, the “Combination Index” value (Cisplatin 1 × 10^−6 mol/L, ALM-74 5.0 μg/ml) was “No” and the “Combination Index” value (Cisplatin 1 × 10^−7 mol/L, ALM-74 0.1 μg/ml) was “No”. For the same molecule, the “Combination Index” value (Cisplatin 1 × 10^−7 mol/L, ALM-74 0.5 μg/ml) was “No”, the “Combination Index” value (Cisplatin 1 × 10^−7 mol/L, ALM-74 1.0 μg/ml) was 0.092 and the “Combination Index” value (Cisplatin 1 × 10^−7 mol/L, ALM-74 5.0 μg/ml) was “No”. For the same molecule, the “Combination Index” value (Cisplatin 1 × 10^−8 mol/L, ALM-74 0.1 μg/ml) was “No”, the “Combination Index” value (Cisplatin 1 × 10^−8 mol/L, ALM-74 0.5 μg/ml) was “No” and the “Combination Index” value (Cisplatin 1 × 10^−8 mol/L, ALM-74 1.0 μg/ml) was 0.091. The “Combination Index” value (Cisplatin 1 × 10^−8 mol/L, ALM-74 5.0 μg/ml) was “No”, the “Combination Index” value (Cisplatin 1 × 10^−9 mol/L, ALM-74 0.1 μg/ml) was 0.895 and the “Combination Index” value (Cisplatin 1 × 10^−9 mol/L, ALM-74 0.5 μg/ml) was “No”. For the same molecule, the “Combination Index” value (Cisplatin 1 × 10^−9 mol/L, ALM-74 1.0 μg/ml) was 0.090, the “Combination Index” value (Cisplatin 1 × 10^−9 mol/L, ALM-74 5.0 μg/ml) was “No” and the “Combination Index” value (Doxorubicin 1 × 10^−4 mol/L, ALM-74 0.1 μg/ml) was “No”. The “Combination Index” value (Doxorubicin 1 × 10^−4 mol/L, ALM-74 0.5 μg/ml) was 0.277, the “Combination Index” value (Doxorubicin 1 × 10^−4 mol/L, ALM-74 1.0 μg/ml) was “No” and the “Combination Index” value (Doxorubicin 1 × 10^−4 mol/L, ALM-74 5.0 μg/ml) was “No”. For the same molecule, the “Combination Index” value (Doxorubicin 1 × 10^−5 mol/L, ALM-74 0.1 μg/ml) was 0.001, the “Combination Index” value (Doxorubicin 1 × 10^−5 mol/L, ALM-74 0.5 μg/ml) was 0.007 and the “Combination Index” value (Doxorubicin 1 × 10^−5 mol/L, ALM-74 1.0 μg/ml) was 0.376. The “Combination Index” value (Doxorubicin 1 × 10^−5 mol/L, ALM-74 5.0 μg/ml) was 1.069, the “Combination Index” value (Etoposide 1 × 10^−4 mol/L, ALM-74 0.1 μg/ml) was 0.355 and the “Combination Index” value (Etoposide 1 × 10^−4 mol/L, ALM-74 0.5 μg/ml) was 0.402. For the same molecule, the “Combination Index” value (Etoposide 1 × 10^−4 mol/L, ALM-74 1.0 μg/ml) was 0.307, the “Combination Index” value (Etoposide 1 × 10^−4 mol/L, ALM-74 5.0 μg/ml) was 0.349 and the “Combination Index” value (Etoposide 1 × 10^−5 mol/L, ALM-74 0.1 μg/ml) was “No”. The “Combination Index” value (Etoposide 1 × 10^−5 mol/L, ALM-74 0.5 μg/ml) was 0.613, the “Combination Index” value (Etoposide 1 × 10^−5 mol/L, ALM-74 1.0 μg/ml) was 0.031 and the “Combination Index” value (Etoposide 1 × 10^−5 mol/L, ALM-74 5.0 μg/ml) was 0.053. For the same molecule, the “Combination Index” value (Etoposide 1 × 10^−6 mol/L, ALM-74 0.1 μg/ml) was “No”, the “Combination Index” value (Etoposide 1 × 10^−6 mol/L, ALM-74 0.5 μg/ml) was “No” and the “Combination Index” value (Etoposide 1 × 10^−6 mol/L, ALM-74 1.0 μg/ml) was 0.015. The “Combination Index” value (Etoposide 1 × 10^−6 mol/L, ALM-74 5.0 μg/ml) was 0.200, the “Combination Index” value (Etoposide 1 × 10^−7 mol/L, ALM-74 0.1 μg/ml) was “No” and the “Combination Index” value (Etoposide 1 × 10^−7 mol/L, ALM-74 0.5 μg/ml) was “No”. For the same molecule, the “Combination Index” value (Etoposide 1 × 10^−7 mol/L, ALM-74 1.0 μg/ml) was 0.016, the “Combination Index” value (Etoposide 1 × 10^−7 mol/L, ALM-74 5.0 μg/ml) was 0.231 and the “Combination Index” value (Etoposide 1 × 10^−8 mol/L, ALM-74 0.1 μg/ml) was “No”. For the same molecule, the “Combination Index” value (Etoposide 1 × 10^−8 mol/L, ALM-74 0.5 μg/ml) was “No”, the “Combination Index” value (Etoposide 1 × 10^−8 mol/L, ALM-74 1.0 μg/ml) was 0.016 and the “Combination Index” value (Etoposide 1 × 10^−8 mol/L, ALM-74 5.0 μg/ml) was 0.261. For the same molecule, the “Combination Index” value (Etoposide 1 × 10^−9 mol/L, ALM-74 0.1 μg/ml) was “No”, the “Combination Index” value (Etoposide 1 × 10^−9 mol/L, ALM-74 0.5 μg/ml) was “No” and the “Combination Index” value (Etoposide 1 × 10^−9 mol/L, ALM-74 1.0 μg/ml) was 0.019. For the same molecule, the “Combination Index” value (Etoposide 1 × 10^−9 mol/L, ALM-74 5.0 μg/ml) was 0.251, the “Combination Index” value (Etoposide 1 × 10^−10 mol/L, ALM-74 0.1 μg/ml) was 0.724 and the “Combination Index” value (Etoposide 1 × 10^−10 mol/L, ALM-74 0.5 μg/ml) was “No”. The “Combination Index” value (Etoposide 1 × 10^−10 mol/L, ALM-74 1.0 μg/ml) was 0.022, the “Combination Index” value (Etoposide 1 × 10^−10 mol/L, ALM-74 5.0 μg/ml) was 0.265 and the “Combination Index” value (Irinotecan 1 × 10^−3 mol/L, ALM-74 0.1 μg/ml) was 0.916. For the same molecule, the “Combination Index” value (Irinotecan 1 × 10^−3 mol/L, ALM-74 0.5 μg/ml) was 0.121, the “Combination Index” value (Irinotecan 1 × 10^−3 mol/L, ALM-74 1.0 μg/ml) was “No” and the “Combination Index” value (Irinotecan 1 × 10^−3 mol/L, ALM-74 5.0 μg/ml) was “No”. For the same molecule, the “Combination Index” value (Irinotecan 1 × 10^−4 mol/L, ALM-74 0.1 μg/ml) was 0.189, the “Combination Index” value (Irinotecan 1 × 10^−4 mol/L, ALM-74 0.5 μg/ml) was 0.302 and the “Combination Index” value (Irinotecan 1 × 10^−4 mol/L, ALM-74 1.0 μg/ml) was 0.051. For the same molecule, the “Combination Index” value (Irinotecan 1 × 10^−4 mol/L, ALM-74 5.0 μg/ml) was 0.051, the “Combination Index” value (Irinotecan 1 × 10^−5 mol/L, ALM-74 0.1 μg/ml) was “No” and the “Combination Index” value (Irinotecan 1 × 10^−5 mol/L, ALM-74 0.5 μg/ml) was “No”. For the same molecule, the “Combination Index” value (Irinotecan 1 × 10^−5 mol/L, ALM-74 1.0 μg/ml) was 0.025, the “Combination Index” value (Irinotecan 1 × 10^−5 mol/L, ALM-74 5.0 μg/ml) was 0.616 and the “Combination Index” value (Irinotecan 1 × 10^−6 mol/L, ALM-74 0.1 μg/ml) was 0.518. For the same molecule, the “Combination Index” value (Irinotecan 1 × 10^−6 mol/L, ALM-74 0.5 μg/ml) was “No”, the “Combination Index” value (Irinotecan 1 × 10^−6 mol/L, ALM-74 1.0 μg/ml) was 0.055 and the “Combination Index” value (Irinotecan 1 × 10^−6 mol/L, ALM-74 5.0 μg/ml) was 0.589. For the same molecule, the “Combination Index” value (Irinotecan 1 × 10^−7 mol/L, ALM-74 0.1 μg/ml) was 0.067, the “Combination Index” value (Irinotecan 1 × 10^−7 mol/L, ALM-74 0.5 μg/ml) was “No” and the “Combination Index” value (Irinotecan 1 × 10^−7 mol/L, ALM-74 1.0 μg/ml) was 0.054. The “Combination Index” value (Irinotecan 1 × 10^−7 mol/L, ALM-74 5.0 μg/ml) was 0.726, the “Combination Index” value (Irinotecan 1 × 10^−8 mol/L, ALM-74 0.1 μg/ml) was 0.046 and the “Combination Index” value (Irinotecan 1 × 10^−8 mol/L, ALM-74 0.5 μg/ml) was “No”. For the same molecule, the “Combination Index” value (Irinotecan 1 × 10^−8 mol/L, ALM-74 1.0 μg/ml) was 0.066, the “Combination Index” value (Irinotecan 1 × 10^−8 mol/L, ALM-74 5.0 μg/ml) was 0.895 and the “Combination Index” value (Irinotecan 1 × 10^−9 mol/L, ALM-74 0.1 μg/ml) was 0.049. The “Combination Index” value (Irinotecan 1 × 10^−9 mol/L, ALM-74 0.5 μg/ml) was “No”, the “Combination Index” value (Irinotecan 1 × 10^−9 mol/L, ALM-74 1.0 μg/ml) was 0.078 and the “Combination Index” value (Irinotecan 1 × 10^−9 mol/L, ALM-74 5.0 μg/ml) was 0.973. The “Combination Index” value (Irinotecan 1 × 10^−10 mol/L, ALM-74 0.1 μg/ml) was 0.22, the “Combination Index” value (Irinotecan 1 × 10^−10 mol/L, ALM-74 0.5 μg/ml) was “No” and the “Combination Index” value (Irinotecan 1 × 10^−10 mol/L, ALM-74 1.0 μg/ml) was 0.086. The “Combination Index” value (Irinotecan 1 × 10^−10 mol/L, ALM-74 5.0 μg/ml) was 0.720.
